Test results published in US20230416341A1, “IMPROVED THROMBIN INHIBITORS FOR TREATMENT OF THROMBOEMBOLIC CONDITIONS” (priority 2020, published 2023).

Assay: Blood loss after 3 mm tail transection (haemoglobin assay)
Conditions: mouse, in vivo, 10 mg/kg, 30 min
Text: “Blood loss” generally refers excessive bleeding or haemorrhage. Minor haemorrhage refers to clinically insignificant bleeding. Major haemorrhage refers to internal bleeding or when the individual loses sufficient amounts of blood to cause a haemodynamic instability. Blood loss may be measured clinically by measuring blood pressure, pulse rate, haemoglobin levels, urea levels in the blood, and/or by imaging. Indicators of major haemorrhage will be clear to a person skilled in the art. Blood loss may also be determined experimentally for example by measuring the total volume of blood collected from a mouse tail transection and may be quantified by measurement of haemoglobin (mg/dL) present in the total volume of blood lost during a specified observation period (for example 20 minutes). Total haemoglobin may be assessed via a commercially available Haemoglobin colorimetric assay kit (Cat #MAK115; Sigma-Aldrich).
Blood loss was assessed by carrying out a 3 mm tail transection (lop) in rodents, to assess blood loss following compound/drug administration. Tail lop was performed using a standard transection 3 mm from the tip of the tail (Schoenwaelder et al, 2011, Blood). The tail was immediately immersed in pre-warmed sterile saline (37° C.) and time to bleeding cessation and rebleeding events monitored for 30 minutes following transection. […]

Compound: CC1CNc2c(cccc2S(=O)(=O)N[C@@H](CCCNC(=N)N)C(=O)N2CC[C@@H](C)C[C@@H]2C(=O)O)C1 (stereo partly shown) [argatroban]
- blood loss (haemoglobin): over 2000 mg/dL
